This assay has as its target T1, Tobacco 5-epi-aristolochene synthase (TEAS) (Nicotiana tabacum, UniProt Q40577).
T1 construct: made in house
T1 sequence (Q40577 1-548): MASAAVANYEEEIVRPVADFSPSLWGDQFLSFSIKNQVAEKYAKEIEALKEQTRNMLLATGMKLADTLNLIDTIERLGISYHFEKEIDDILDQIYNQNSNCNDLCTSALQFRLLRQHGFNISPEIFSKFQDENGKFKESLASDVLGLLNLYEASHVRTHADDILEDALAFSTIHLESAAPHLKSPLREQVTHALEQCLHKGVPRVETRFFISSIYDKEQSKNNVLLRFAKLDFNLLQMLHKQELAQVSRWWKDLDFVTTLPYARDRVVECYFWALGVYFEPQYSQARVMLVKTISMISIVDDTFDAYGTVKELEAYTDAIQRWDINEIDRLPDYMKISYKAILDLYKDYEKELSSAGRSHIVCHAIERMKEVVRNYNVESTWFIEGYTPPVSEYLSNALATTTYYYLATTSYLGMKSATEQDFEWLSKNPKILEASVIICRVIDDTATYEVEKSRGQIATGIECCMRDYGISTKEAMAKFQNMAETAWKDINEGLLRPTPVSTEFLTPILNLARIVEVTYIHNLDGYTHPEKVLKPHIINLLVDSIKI
The assay can be described thus: TEAS activity assay (3H-FPP to 3H-5-epi-aristolochene, hexane partitioning). Type of assay: biochemical. On the procedure: Kinetic Characterization of the Interaction of AGPP with TEAS. The assay for TEAS activity is based upon partitioning of the hydrophobic product (^3H-5-epi-aristolochene) into an organic solvent while the hydrophilic substrate (^3H-FPP) remains in the aqueous phase (i.e. Vögeli & Chappell, 1988; Back et al., 1994; Mathis et al. 1997). The Ki describing AGPP interaction with TEAS was characterized by measuring initial velocities for a matrix of reactions. Reactions (50 μl) containing 200 mM Tris-Cl, pH 7.5, 40 mM MgCl2, 50-250 nM TEAS, and 0.2 μCi ^3H-FPP, carrier-free or in combination with unlabeled FPP to give final substrate concentrations of 0.2-10 μM. Fixed concentrations of AGPP ranged from 0-150 μM. Reactions were initiated by the addition of enzyme and were incubated for 5 min. at 37° C. Reactions were quenched by vortexing against 150 μl hexane. After a brief centrifugation, 100 μl of the hexane phase was treated with approximately 20 mg of silica powder to remove any contaminating FPP or farnesol, the latter of which may be generated by contaminating phosphatase activity. Following vortexing and a brief centrifugation to pellet the silica, 50 μl of the hexane phase was mixed with 4 ml of liquid scintillation cocktail and analyzed for radioactivity (disintegrations per minute). Determination of reaction rate was based on percent conversion to product, the value for which was obtained by comparing the radioactivity in the hexane extract to that in an untreated aliquot of the assay mixture. […] Data were analyzed using Enzyme Kinetics V 1.5 (Trinity Software).
Kinetic Characterization of the Interaction of AGPP with TEAS. As a synthetic analog of FPP, AGPP (2) may potentially bind within the TEAS active site and thereby inhibit the sesquiterpene synthase activity of this enzyme. The nature of the potential interaction between TEAS and AGPP was characterized through a series of TEAS activity assays in which the ability of TEAS to produce ^3H-5-epi-aristolochene from ^3H-FPP was monitored in the presence of unlabeled AGPP. […]

On to `C/C(=C\COP(=O)(O)OP(=O)(O)O)CC/C=C(\C)CNc1ccccc1` [AGPP, 8-anilino-geranyl pyrophosphate], for which the “mode of inhibition of TEAS-catalyzed cyclization of FPP (Lineweaver-Burk plots, FIG. 1)” value (intersecting Lineweaver-Burk plots) is given as “competitive inhibitor”. For the same compound, the Ki (recombinant TEAS, 3H-FPP substrate 0.2-10 μM, AGPP 0-150 μM, 5 min at 37° C., read-out: Ki for the inhibition of TEAS activity) was found to be 5.9 ± 1.8 µM.
As to `CC(C)=CCC/C(C)=C/CC/C(C)=C/COP(=O)(O)OP(=O)(O)O` [FPP], under “at 37° C., read-out: KM, TEAS utilization of FPP as a substrate”, the Michaelis-Menten constant (Km) turned out to be 5.4 µM.

Broadly, the Ki is the equilibrium dissociation constant of an inhibitor or competing ligand from its target. The term Km denotes the substrate concentration at which the rate is half of its maximum.

The values are drawn from patent publication US20020037560A1, “Bicyclic terpenes and synthesis thereof” (priority 2000, published 2002).
